Here are results for one molecule from US20230104823A1, “PROCESS FOR THE PREPARATION OF PURINE DERIVATIVES EXHIBITING CDK INHIBITORY ACTIVITY” (CYCLACEL LIMITED, priority 2020, published 2023).

Data set [1] in a line: solubility measurement during crystallisation of crude compound [1]. Conditions: for T=0 solubility measurement: 5 volumes. In kind it is physicochemical. The procedure:
The hot mixture was clarified through a heated large nylon syringe filter (0.44 μm) into a Mya4 100 ml process vessel with overhead U-shape agitation at 200 RPM pre-heated to 95° C. (target internal temperature=80-85° C.). The dark brown solution was cooled to 74.5° C. over 15 minutes and seeded with crystals of compound [1] (Form A) (ca. 6 mg 0.1% wt). […] Noticeable amounts of off-white precipitate were observed ca. 61-62° C. Following cooling, the mixture was held at 0° C. for ca. 3 hours. The solids were isolated via filtration, with no evidence of fouling of the vessel or agitator. The vessel and filter cake were washed with the isolated filtrates and air dried for 15 minutes before collection of the off-white solids and dark brown liquors. The solids were collected and dried in vacuo at 45° C. for ca. 4 hours to yield the title compound. 4.88 g of crystalline Compound [1] was successfully isolated in 80.1% yield. The maximum theoretical recovery based upon measured solubility pre-isolation at 0° C. was 94.2%.
Crude Compound [1] (6.00 g) was suspended ethyl acetate (30 ml, 5 volumes) in a suitable glass vessel under N2 fitted with reflux condenser and stirrer bead agitation at 420 RPM. The beige suspension was heated to 75° C. (target 70-75° C.) upon which full dissolution to a dark brown solution was achieved during heating at ca. 68° C. The hot mixture was clarified through a heated large nylon syringe filter (0.44 μm) into a Mya4 100 ml process vessel with overhead U-shape agitation at 200 RPM pre-heated to 85° C. (target internal temperature=70-75° C.). The dark brown solution was cooled to 65.2° C. over 15 minutes (target 62.5-67.5° C.) and seeded with crystals of compound [1] (Form A) (ca. 6 mg 0.1% wt). Cooling was continued to 59.8° C. […] The solids were isolated via filtration. The vessel and filter cake were washed with the isolated filtrates and air dried for 12 minutes before collection of the off-white solids and dark brown liquors. The solids were collected and dried in vacuo at 45° C. for ca. 4 hours to yield the title compound. 4.59 g of crystalline Compound [1] was successfully isolated in 76.4% yield. The maximum theoretical recovery based upon measured solubility pre-isolation at 0° C. was 90.6%.
Crude Compound [1] (5.96 g) was suspended n-Butyl acetate (30 ml, 5 volumes) in a suitable glass vessel under N2 fitted with reflux condenser and stirrer bead agitation at 420 RPM. The beige suspension was heated to 85° C. (target 80-85° C.) upon which full dissolution to a dark brown solution was achieved during heating at ca. 82° C. The hot mixture was clarified through a heated large nylon syringe filter (0.44 μm) into a Mya4 100 ml process vessel with overhead U-shape agitation at 200 RPM pre-heated to 95° C. (target internal temperature=80-85° C.). The dark brown solution was cooled to 74.6° C. over 15 minutes (target 72.5-77.5° C.) and seeded with crystals of compound [1] (Form A) (ca. 6 mg 0.1% wt). Cooling was continued to 69.5° C. […] The solids were isolated via filtration. The vessel and filter cake were washed with the isolated filtrates and air dried for 10 minutes before collection of the grey solids and dark brown liquors. The solids were collected and dried in vacuo at 45° C. for ca. 4 hours to yield the title compound. 4.64 g of crystalline Compound [1] was successfully isolated in 77.9% yield. The maximum theoretical recovery based upon measured solubility pre-isolation at 0° C. was 91.7%.

The next data set deals with CDK. Conditions: statement in background section; cited from earlier work.
In data set [2] the test system is range of different cell lines. Conditions: statement in background section; cited from earlier work.

A word on the solubility: it is the dissolved amount per volume that the medium holds. A lower solubility goes with little dissolved substance.

≈ marks a conversion by molar mass, not a printed value.

In the case of `CC[C@H](Nc1nc(NCc2cnc(C)cc2C)c2ncn(C(C)C)c2n1)[C@@H](C)O` [Compound [1]], the “T=0 solubility measurement” value worked out at 184.35 mg/mL in data set [1] (ethyl acetate, after seeding at 59.8° C.); 189.83 mg/mL in data set [1] (isopropyl acetate, after seeding at 70.1° C.); 175.84 mg/mL in data set [1] (n-butyl acetate, after seeding at 69.5° C.). Besides, the solubility worked out at 18.84 mg/mL (≈ 47.4 mM) in data set [1] (ethyl acetate, held at 0° C. for ca. 5 hours (90.06% development)) and 16.61 mg/mL (≈ 41.8 mM) in data set [1] (n-butyl acetate, held at 0° C. for ca. 3 hours (91.7% development)). Moreover, the CDK inhibitory activity entry with CDK is given as “potent CDK inhibitory activity”. Also, the “potency in cellular toxicity studies” value in data set [2] is reported as “surprisingly high potency”.
